Literature values, collected in patent US6476058B2 (Isotechnika, Inc., priority 1998, dated 2002).

Experiments:
[1] = system: patients with chronic stable angina
[2] = in vivo
[3] = system: human; details: racemic mixture administered to a human

For `CCOC(=O)C1=C(COCCN)NC(C)=C(C(=O)OC)C1c1ccccc1Cl` (racemic) [amlodipine, (R.S.) 3-ethyl-5-1-methyl-2-(2-aminoethoxymethyl)-4-(2-chlorophenyl)-1,4-dihydro-6-methyl-3,5-pyridinedicarboxylate], the “reduction in blood pressures” value [1] is listed as 4/1, the serum calcium concentration [2] is listed as “not affected” and the adverse effects [3] is listed as “headache and edema, dizziness, flushing, palpitation, fatigue, nausea, abdominal pain and somnolence”. For the same compound, the “metabolites excreted in the urine” value (in vivo) was 60%, the “parent compound excreted in the urine” value (in vivo) was 10% and the “bioavailability in the presence of food” value (oral, food) was “not altered”. The “influence of renal impairment on pharmacokinetics” value (renal impairment) was “not significantly influenced”.
